# Target: SOS1:KRAS (G12C) interaction (Homo sapiens (Human), UniProt Q07889)
# Assay: SOS1 KRas(G12C) FRET Assay
# Assay type: binding
# Details: 0.5 nM His10-SOS1 (res. 564-1049), 2.5 nM GST-KRAS G12C (res. 1-169), 2 hrs at RT
# Description: Inhibition of the SOS 1:KRAS interaction was measured using purified GST-tagged KRAS (res. 1-169, G12C, purified based on Hillig, et al., Proc Natl Acad Sci USA (2019); 116(7):2551-2560) and recombinant His10-SOS1 (res. 564-1049; purified based on Hillig, et al.). The final assay was performed at 20 uL with 0.5 nM SOS1 protein and 2.5 nM KRAS protein in a buffer of PBS, 0.1% BSA, 5 mM MgCh, 0.0025% Igepal, 100 mM KF, 5 mM DTT in a white 384 square well OptiPlate (PerkinElmer, Cat. 6007290). A 2x KRAS working solution was prepared in an assay buffer containing 5 nM GST-KRAS G12C and 2 nM anti-GST-Eu(K) (Cisbio, Cat. 61GSTKLA) and pre-incubated for 15 minutes at 25° C. […] The final DMSO concentration is 0.5%. Plates were incubated at RT for 2 hrs before the FRET signal was measured using Envision at emission 665 nm and 615 nm. FRET signal was converted to percentage of protein-protein interaction using the following equation:
# • C: signal with compound treatment • P: signal for positive control (DMSO) • N: signal for negative control (no SOS1 added)
# IC50 and Hill coefficients were obtained using Graph Pad Prism (Graph Pad software, Inc, USA) with non-linear regression analysis.
# Chain of SOS1:KRAS (G12C) interaction (Q07889 564-1049, stated change not applied): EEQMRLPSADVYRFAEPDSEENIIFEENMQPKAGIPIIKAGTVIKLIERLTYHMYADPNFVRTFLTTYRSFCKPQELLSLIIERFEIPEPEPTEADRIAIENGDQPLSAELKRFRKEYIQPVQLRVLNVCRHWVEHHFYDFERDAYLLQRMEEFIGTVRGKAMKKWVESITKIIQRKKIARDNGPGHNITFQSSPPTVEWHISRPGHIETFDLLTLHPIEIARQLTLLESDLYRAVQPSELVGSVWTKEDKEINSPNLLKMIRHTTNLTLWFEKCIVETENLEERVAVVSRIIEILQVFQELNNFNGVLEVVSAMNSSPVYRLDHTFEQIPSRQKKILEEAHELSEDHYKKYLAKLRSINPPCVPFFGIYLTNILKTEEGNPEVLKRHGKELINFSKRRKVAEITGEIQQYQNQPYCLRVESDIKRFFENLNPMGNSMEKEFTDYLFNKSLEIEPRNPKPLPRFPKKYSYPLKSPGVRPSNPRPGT
row,IC50,Structure (SMILES)
1,137 nM,"C[C@@H](NC(=O)c1cn(C2C(F)(F)C23CC3)c(=O)cc1N[C@H]1[C@@H]2CN(C)C[C@@H]21)c1cccc(C(F)F)c1F (stereo partly drawn) [Example 206, N-((R)-1-(3-(difluoromethyl)-2-fluorophenyl)ethyl)-1-(2,2-difluorospiro[2.2]pentan-1-yl)-4-(((1R,5S,6s)-3-methyl-3-azabicyclo[3.1.0]hexan-6-yl)amino)-6-oxo-1,6-dihydropyridine-3-carboxamide]"
2,5.44 nM,"C[C@@H]1[C@@H](n2cc(C(=O)N[C@H](C)c3cccc(C(C)(F)F)c3F)c(N[C@H]3[C@@H]4CN(C)C[C@@H]43)cc2=O)C1(F)F (single isomer, unassigned) [Example 195]"
3,17 nM,"C[C@@H](NC(=O)c1cn(C2(C(F)F)CCC2)c(=O)cc1N[C@@H]1[C@@H]2C[C@H]1CN(C)C2)c1cccc(C(F)F)c1F (single isomer, unassigned) [Example 252]"
4,12.9 nM,C[C@@H](NC(=O)c1cn(C23COC(C2)C3)c(=O)cc1N[C@H]1[C@@H]2CN(C)C[C@@H]21)c1cccc(C(F)F)c1F [Example 192]
5,5900 nM,"CC(NC(=O)c1cn(C2(C(F)F)CC2)c(=O)cc1NC1CCN(C)CC1)c1ccc(C2CC2)c(C(F)(F)F)c1 (stereo not shown) [Example 169, N-(1-(4-cyclopropyl-3-(trifluoromethyl)phenyl)ethyl)-1-(1-(difluoromethyl)cyclopropyl)-4-((1-methylpiperidin-4-yl)amino)-6-oxo-1,6-dihydropyridine-3-carboxamide]"
6,6.1 nM,"C[C@@H](NC(=O)c1cn(C2(C(F)F)CC2)c(=O)cc1N[C@H]1CCCn2cncc21)c1cccc(C(F)F)c1F (single isomer, unassigned) [Example 183]"
7,85.8 nM,"C[C@@H](NC(=O)c1cn([C@H]2CCC2(F)F)c(=O)cc1N[C@H]1[C@@H]2CN(C)C[C@@H]21)c1cccc(C(F)(F)F)c1 (single isomer, unassigned) [Example 257]"
8,15.8 nM,"C[C@@H](NC(=O)c1cn(C2(C(F)F)CC2)c(=O)cc1N[C@H]1[C@@H]2CC[C@H]1CNC2)c1cccc(C(F)F)c1F (single isomer, unassigned) [Example 280]"
9,7940 nM,"COc1ccc([C@@H](C)NC(=O)c2cn(C3(C(F)F)CC3)c(=O)cc2NC2CCN(C)CC2)c(F)c1C(F)(F)F (single isomer, unassigned) [Example 165]"
10,24.1 nM,"C[C@@H](NC(=O)c1cn(C2(C(F)F)CC2)c(=O)cc1N[C@@H]1CCNC2(CC2)C1)c1cccc(C(F)F)c1F (single isomer, unassigned) [Example 278]"
11,13 nM,"C[C@@H](NC(=O)c1cn([C@H]2C[C@@H]2C2CC2)c(=O)cc1NC1CCN(C)CC1)c1cccc(C(F)F)c1F (single isomer, unassigned) [Example 73]"
12,10.6 nM,"C[C@@H](NC(=O)c1cn(C2CCC2)c(=O)cc1N[C@H]1[C@@H]2CC[C@H]1CN(C)C2)c1cccc(C(F)F)c1F (single isomer, unassigned) [Example 214]"
13,27.8 nM,"CC(=O)N1CC[C@](C)(n2cc(C(=O)N[C@H](C)c3cccc(C(F)F)c3F)c(NC3CCN(C)CC3)cc2=O)C1 (single isomer, unassigned) [Example 265]"
14,4.6 nM,"C[C@@H](NC(=O)c1cn(C23CC(C2)C3)c(=O)cc1N[C@H]1CCN(C)C[C@H]1F)c1cccc(C(F)F)c1F (single isomer, unassigned) [Example 203]"
15,7.8 nM,"C[C@@H](NC(=O)c1cn(C2CCOCC2)c(=O)cc1NC1CCN(C)CC1)c1cccc(C(F)F)c1F [Example 41, (R)-N-(1-(3-(difluoromethyl)-2-fluorophenyl)ethyl)-4-((1-methylpiperidin-4-yl)amino)-6-oxo-1-(tetrahydro-2H-pyran-4-yl)-1,6-dihydropyridine-3-carboxamide]"
16,21.5 nM,"C[C@@H](NC(=O)c1cn(C2(C(F)F)CC2)c(=O)cc1N[C@@H]1C[C@H]2C[C@@H]1CN2C)c1cccc(C(F)F)c1F (single isomer, unassigned) [Example 239]"
17,34.2 nM,"C[C@@H](NC(=O)c1cn(C2(C(F)F)CC2)c(=O)cc1N[C@@H]1[C@@H]2CN(C)C[C@@H]21)c1cccc(C(F)F)c1F [Example 56, N-((R)-1-(3-(difluoromethyl)-2-fluorophenyl)ethyl)-1-(1-(difluoromethyl)cyclopropyl)-4-(((1R,5S,6r)-3-methyl-3-azabicyclo[3.1.0]hexan-6-yl)amino)-6-oxo-1,6-dihydropyridine-3-carboxamide]"
18,19.1 nM,"C[C@@H](NC(=O)c1cn(C23CC(C2)C3)c(=O)cc1N[C@@H]1C[C@@H]2CN(C)C[C@@H]2C1)c1cccc(C(F)F)c1F [Example 216, 1-(bicyclo[1.1.1]pentan-1-yl)-N-((R)-1-(3-(difluoromethyl)-2-fluorophenyl)ethyl)-4-(((3aR,5r,6aS)-2-methyloctahydrocyclopenta[c]pyrrol-5-yl)amino)-6-oxo-1,6-dihydropyridine-3-carboxamide]"
19,23.6 nM,"C[C@@H](NC(=O)c1cn(C2(C(F)F)CC2)c(=O)cc1NC1CCN(C2(C)CC2)CC1)c1cccc(C(F)F)c1F [Example 288, (R)-N-(1-(3-(difluoromethyl)-2-fluorophenyl)ethyl)-1-(1-(difluoromethyl)cyclopropyl)-4-((1-(1-methylcyclopropyl)piperidin-4-yl)amino)-6-oxo-1,6-dihydropyridine-3-carboxamide]"
20,116 nM,"COC12CC(CNc3cc(=O)n(C45CC(C4)C5)cc3C(=O)N[C@H](C)c3cccc(C(F)F)c3F)(C1)C2 [Example 262, (R)-1-(bicyclo[1.1.1]pentan-1-yl)-N-(1-(3-(difluoromethyl)-2-fluorophenyl)ethyl)-4-(((3-methoxybicyclo[1.1.1]pentan-1-yl)methyl)amino)-6-oxo-1,6-dihydropyridine-3-carboxamide]"
21,59.2 nM,"Cc1c([C@@H](C)NC(=O)c2cn(C3CCOCC3)c(=O)cc2NC2CN(C)C2)cccc1C(F)(F)F [Example 28, (R)-N-(1-(2-methyl-3-(trifluoromethyl)phenyl)ethyl)-4-((1-methylazetidin-3-yl)amino)-6-oxo-1-(tetrahydro-2H-pyran-4-yl)-1,6-dihydropyridine-3-carboxamide]"
22,34.4 nM,"Cc1c([C@@H](C)NC(=O)c2cn(C3CCOCC3)c(=O)cc2NC2CCNCC2)cccc1C(F)(F)F [Example 282, (R)-N-(1-(2-methyl-3-(trifluoromethyl)phenyl)ethyl)-6-oxo-4-(piperidin-4-ylamino)-1-(tetrahydro-2H-pyran-4-yl)-1,6-dihydropyridine-3-carboxamide]"
23,77.8 nM,"COc1c(NC2CCN(C)CC2)c(C(=O)N[C@H](C)c2cccc(C(F)(F)F)c2C)cn(C2CCOCC2)c1=O [Example 18, (R)-5-methoxy-N-(1-(2-methyl-3-(trifluoromethyl)phenyl)ethyl)-4-((1-methylpiperidin-4-yl)amino)-6-oxo-1-(tetrahydro-2H-pyran-4-yl)-1,6-dihydropyridine-3-carboxamide]"
24,151 nM,"Cc1c(C#N)cccc1[C@@H](C)NC(=O)c1cn([C@@H]2[C@@H](C)C2(F)F)c(=O)cc1N[C@H]1[C@@H]2CN(C)C[C@@H]21 (single isomer, unassigned) [Example 193]"
25,53.6 nM,"COCCN1CC(CNc2cc(=O)n(C3CCOCC3)cc2C(=O)N[C@H](C)c2cccc(C(F)(F)F)c2C)C1 [Example 295, (R)-4-(((1-(2-methoxyethyl)azetidin-3-yl)methyl)amino)-N-(1-(2-methyl-3-(trifluoromethyl)phenyl)ethyl)-6-oxo-1-(tetrahydro-2H-pyran-4-yl)-1,6-dihydropyridine-3-carboxamide]"
26,27.8 nM,"C[C@@H](NC(=O)c1cn(C23CC(C2)C3)c(=O)cc1N[C@H]1[C@@H]2CN(C)C[C@@H]21)c1cccc(S(F)(F)(F)(F)F)c1F [Example 162, 1-(bicyclo[1.1.1]pentan-1-yl)-N-((R)-1-(2-fluoro-3-(pentafluoro-16-sulfaneyl)phenyl)ethyl)-4-(((1R,5S,6s)-3-methyl-3-azabicyclo[3.1.0]hexan-6-yl)amino)-6-oxo-1,6-dihydropyridine-3-carboxamide]"
27,1.21 nM,"C[C@@H](NC(=O)c1cn([C@]2(C)CCN(C(=O)C3(F)CC3)C2)c(=O)cc1NC1CCN(C)CC1)c1cccc(C(F)F)c1F [Example 269, N-((R)-1-(3-(difluoromethyl)-2-fluorophenyl)ethyl)-1-((R)-1-(1-fluorocyclopropane-1-carbonyl)-3-methylpyrrolidin-3-yl)-4-((1-methylpiperidin-4-yl)amino)-6-oxo-1,6-dihydropyridine-3-carboxamide]"

row,Structure (SMILES),IC50
1,"C[C@@H](NC(=O)c1cn(C23CC(C2)C3)c(=O)cc1N[C@H]1[C@@H]2CN(C)C[C@@H]21)c1cccc(S(F)(F)(F)(F)F)c1 [Example 161, 1-(bicyclo[1.1.1]pentan-1-yl)-4-(((1R,5S,6s)-3-methyl-3-azabicyclo[3 .1.0]hexan-6-yl)amino)-6-oxo-N-((R)-1-(3-(pentafluoro-16-sulfaneyl)phenyl)ethyl)-1,6-dihydropyridine-3-carboxamide]",24 nM

# Source: patent US20230348424A1, “HETEROCYCLIC COMPOUNDS AND METHODS OF USE” (Schrödinger, Inc., priority 2022, published 2023)
